According to patent publication US20120295804A1, “Compositions and Methods for Diagnosis and Treatment of Breast Cancer” (University of Medicine and Dentistry of New Jersey, priority 2011, published 2012):

How the values were obtained:
[1] = system: GJIC between Oct4^hi BCCs and BM stroma; test: GJIC in co-cultures of Oct4^hi BCCs and bone marrow stroma with or without 1-octanol; format: cell-based; details: 300 μM 1-octanol
Text: Connexin (Cx) expression was studied using plasma membrane extracts from unsorted, Oct4^hi, Oct4^med and Oct4^− BCCs. […] It was next determined if the higher expression of connexins in BCCs could provide the cells with an advantage to form GJIC, in co-cultures of Oct4^hi BCCs and BM stroma. […] As expected, in the presence of the GJIC inhibitor 1-octanol, the intensity of Cx43 was reduced. GJIC was studied via dye transfer between BCCs and stroma using CFDA-SE-labeled Oct4^hi BCCs, as described previously (Lim, P. K. et al. 2011. Cancer Res. 71:1550-1560). Dye transfer into stroma was blunted by 1-octanol. Finally, the total number of BCCs showing dye transfer was counted in order to quantify functional GJIC.
GJIC was assessed by CFDA-SE dye exchange from BCCs to stroma in co-cultures, as described previously (Ramkisson, S. H. et al. 2007. Cancer Res. 67:1653-1659). Briefly, BCCs and stroma were co-cultured at equal ratios in α-MEM with 10% FCS, in the presence or absence of 300 μM 1-octanol. CFDA-SE dye transfer was assessed on an EVOS fl fluorescence imager (AMG Micro, Bothell, Wash.).

Oct4^− BCCs = test: Chemical induction of GFP in Oct4(−) breast cancer cells stably transfected with pEGFP1-Oct3/4; format: cell-based; details: 2.7 μM BIX01294, 24 h, pEGFP1-Oct3/4 stable transfectants
Text: Therefore, different BCC subsets were selected based on Oct4 expression. To do this, MDA-MB-231 and T47D were stably transfected with an Oct4 reporter vector, pEGFP1-Oct3/4 (Gerrard, L. et al. 2005. Stem Cells 23:124-133). The transfected cells were sorted into three subsets based on GFP expression levels. The top 5% of GFP expressers were designated Oct4^hi and the lowest 5%, Oct4^−. The population between the extremes were designated Oct4^med. GFP intensities were validated for correlation with Oct4 protein by intracellular flow cytometry of pEGFP1-Oct3/4 transfectants. The Oct4^− population was similar to isotype control. In contrast, the mean fluorescence intensity (MFI) of cells labeled with APC-anti-Oct4 correlated with GFP intensities.
At 40-50% confluence stably transfected BCCs were treated with G9a histone methyltransferase inhibitor, [2-(Hexahydro-4-methyl-1H-1,4-diazepin-1-yl)-6,7-dimethoxy-N-[1-(phenylmethyl)-4-piperidinyl]4-quinazolinamine] (BIX01294, Enzo Life Sciences, Farmingdale, N.Y.). BIX01294 and similar chemicals can induce Oct4 in negative cells, in reprogramming (Huangfu, D. et al. 2008. Nat. Biotech. 26:795-797; Shi, Y. et al. 2008. Cell Stem Cell 3:568-574). Cells were treated with 2.7 μM BIX01294. After 24 h, images were taken by fluorescence microscopy. Control cells were untreated or treated with vehicle (dimethyl sulphoxide, DMSO).

Oct4^hi BCCs = test: Carboplatin response of subcutaneous tumors from Oct4^hi BCCs; format: in vivo, nude BALB/c mice; details: 50 mg/kg i.p. twice at 3-day intervals, same tumor size as unsorted BCCs
Experimental: (§1) Both triple-negative MDA-MB-231 and triple-positive T47D are expected to respond to carboplatin treatment, a drug which acts through a mechanism independent of hormone receptor status. Thus, the responsiveness to carboplatin was investigated in Oct4^hi cells from both cells lines. Tumors were injected into the dorsal flanks of mice as before. When the tumors were 0.5 cm^3 the mice were injected with carboplatin intra-peritoneally (i.p.).
(§2) Serial passage of different BCC subsets was performed by injecting BCCs in dorsal flanks of mice. The cells were resuspended in PBS and then mixed with matrigel at 1:1 ratio in 0.2 mL total volume. The cells were injected at different numbers, but in a constant volume to study dose effects on the time for tumor growth. Parallel analyses were performed with unsorted BCCs. Tumors were monitored daily for 30 days and measured in two dimensions with a caliper and volume was calculated using the following: formula V=πr^2h, where r=radius and h=height. Subsequent passages occurred by sorting the same cell subset (top 5% highest GFP) and then repeating the injection as above.
(§3) Carboplatin responses to tumor growth were assessed by subcutaneous injection of 200 Oct4^hi BCCs in matrigel in the dorsal flank. For unsorted BCCs, 10^6 cells were injected. […] Tumor sizes were recorded every 2 days with a caliper, as described for serial passage.

Oct4^hi MDA-MB-231 = test: Carboplatin resistance of Oct4^hi BCCs in bone marrow (femur endosteum); format: in vivo, mice; details: 10^3 Oct4^hi MDA-MB-231 i.v.; carboplatin 50 mg/kg i.p. at 3-day intervals; femurs examined one week after second injection
Experimental: It was then determined if Oct4^hi BCCs, at sites of distant metastasis, such as bone marrow, could resist carboplatin treatment. Bone marrow was selected for study because it is well-established that BCCs can attain dormancy in this organ, close to the endosteum (Lim, P. K. et al. 2011. Cancer Res. 71:1550-1560; Rao, G. et al. 2004. Cancer Res. 64:2874-2881). Mice were injected intravenously with 10^3 Oct4^hi MDA-MB-231. After 1 day, carboplatin was injected i.p. at 3-day intervals. One week after the second injection, femurs were decalcified, processed, and examined for GFP^+ cells. […] Similar cells were not detected in the cellular regions of the marrow, which were flushed from femurs prior to the analyses of the endosteal regions. Mice were injected intravenously with 10^3 BCCs, stably transfected with pEGFP1-Oct3/4. After 24 hours, mice were injected i.p. with carboplatin (50 mg/kg), followed by a second dose after 3 days. One week after the final injection of carboplatin, mice were euthanized, and the femurs were removed. Femurs were rinsed and the cells flushed using a 27 gauge needle attached to a syringe with PBS to remove the cells within the central region of the cavity. After this, the femurs were fixed overnight in 4% formaldehyde at 4° C. […] Slides were examined with an EVOS fl fluorescence imager.

unsorted BCCs = test: Carboplatin response of subcutaneous tumors from unsorted BCCs; format: in vivo, nude BALB/c mice; details: 50 mg/kg i.p. twice at 3-day intervals
Experimental: as §1, §2, §3

[2] = system: Oct4^hi BCCs (MDA-MB-231 and T47D); test: Hoechst 33342 dye exclusion (side population) in the presence or absence of verapamil; format: cell-based; details: 400 μM verapamil, 5 μg/mL Hoechst 33342, Oct4^hi population
Experimental: FIG. 7 depicts results of experiments of dye retention in BCC subsets. Oct4^hi BCCs were labeled with Hoechst 33342 (5 μg/mL), in the presence or absence of 400 μM verapamil. Propidium iodide-negative cells were gated based on GFP intensity. The cells were analyzed on Hoechst Blue and Hoechst Red filters. Side population cells that were Hoechst negative (circled) were compared in the two experimental conditions. The figure represents five different experiments, with MDA-MB-231 and T47D.
Experiments were then performed to determine if drug resistance genes played any role in the differentiation of BCC subsets. […] Oct4^hi cells were incubated in the presence or absence of verapamil, which inhibits multi-drug resistance transporters, and then dye exclusion was tested in four different experiments. Oct4^hi, Oct4^med and Oct4^− cells were tested. […] Only few Oct4^med (FIG. 8) and Oct4^− cells (FIG. 9) excluded the dye.
Side population analysis of the pEGFP1-Oct4 stable transfectants was performed using the LSR II (BD Biosciences). […] Optimal titrations and conditions were determined to be 5 μg/ml Hoechst 33342 (90 min incubation at 37° C.) and 400 μM verapamil (10 min pre-incubation). […] The cells between the two extremes were also analyzed (Oct4^med).

Structure (SMILES): CCCCCCCCO [1-octanol]
- CFDA-SE dye transfer into stroma ([1]; CFDA-SE-labeled Oct4^hi BCCs): blunted
- intensity of Cx43 immunofluorescence ([1]; co-cultures of Oct4^hi BCCs and BM stroma): reduced

Structure (SMILES): COc1cc2nc(N3CCCN(C)CC3)nc(NC3CCN(Cc4ccccc4)CC3)c2cc1OC [BIX01294, 2-(Hexahydro-4-methyl-1H-1,4-diazepin-1-yl)-6,7-dimethoxy-N-[1-(phenylmethyl)-4-piperidinyl]4-quinazolinamine]
- Oct4^− BCCs reverted to high GFP expression (Oct4^− BCCs): 92.5%±4.4%

Structure (SMILES): N.N.O=C([O-])C1(C(=O)[O-])CCC1.[Pt+2] [carboplatin]
- tumors after carboplatin treatment (Oct4^hi BCCs): retained palpable tumors
- GFP^+ BCCs in femur after carboplatin (Oct4^hi MDA-MB-231): drug resistance in GFP^+ BCCs close to the endosteum of bone marrow
- tumors eight days after treatment with carboplatin (unsorted BCCs; mice injected with unsorted BCCs): tumors were undetectable
- tumor change after the second injection of carboplatin (unsorted BCCs; tumors 0.5 cm^3 at start, vs Oct4^hi and untreated unsorted BCC): significant (p<0.05) reduction

Structure (SMILES): COc1ccc(CCN(C)CCCC(C#N)(c2ccc(OC)c(OC)c2)C(C)C)cc1OC (centres unmarked) [verapamil]
- difference in Hoechst dye retention with verapamil [2]: 3 fold
